Assay results as given in patent US20250144067A1, “PERSONALIZED STARVATION THERAPY FOR CANCER” (Faeth Therapeutics, Inc., priority 2021, published 2025).
Counter-ions that a name gives are not always drawn.

What was measured:
[1] = test system: NCI-H292 lung cancer cells; experiment: FDA drug screening, complete media vs cholesterol-free media without statin (TABLE 1); assay type: cell-based, human
[2] = test system: NCI-H292 lung cancer cells; experiment: FDA drug screening, complete media vs cholesterol-free media with simvastatin (TABLE 2); assay type: cell-based, human; details: for Cholesterol-free media + simvastatin (0.04 μM) / Complete Media: NCI-H292 cells
[3] = NCI-H292 cells, cholesterol-free media without statin, FDA drug library screen
[4] = NCI-H292 cells, complete media, FDA drug library screen
[5] = complete vs cholesterol-free media, >0 enhanced anti-cancer activity, about 0 neutral, <0 antagonist
[6] = FDA drug library screen, cholesterol-free media with simvastatin 0.04 μM
[7] = FDA drug library screen, complete media
[8] = complete media vs cholesterol-free media + simvastatin (0.04 μM), >0 enhanced anti-cancer activity, about 0 neutral, <0 antagonist
[9] = Complete minus Cholesterol-free, greater than 0 enhanced anti-cancer activity, about 0 neutral, below 0 antagonist
[10] = NCI-H292 cells, FDA drug library screen, cholesterol-free media without statin
[11] = NCI-H292 cells, FDA drug library screen, complete media
[12] = FDA library drug in cholesterol-free media with simvastatin 0.04 μM
[13] = FDA library drug in complete media
[14] = Complete minus Cholesterol-free, >0 enhanced anti-cancer activity, about 0 neutral, <0 antagonist
[15] = NCI-H292 cells, cholesterol-free media without statin
[16] = cholesterol-free media with simvastatin 0.04 μM, cell growth value in FDA drug screen
[17] = complete media, cell growth value in FDA drug screen
[18] = complete media minus cholesterol-free media + simvastatin, >0 enhanced anti-cancer activity, about 0 neutral, <0 antagonist
[19] = Complete minus Cholesterol-free, […]
[20] = complete media vs cholesterol-free media + simvastatin (0.04 μM), […]
[21] = cholesterol-free media with simvastatin 0.04 μM, FDA drug library screen (TABLE 2)
[22] = complete media, FDA drug library screen (TABLE 2)
[23] = complete media minus cholesterol-free media + simvastatin (0.04 μM), >0 enhanced anti-cancer activity, about 0 neutral, <0 antagonist
[24] = complete media minus cholesterol-free media + simvastatin, […]
[25] = Complete minus Cholesterol-free, greater than 0 enhanced anti-cancer activity, about 0 neutral, below 0 antagonists
[26] = NCI-H292 cells in cholesterol-free media without statin
[27] = NCI-H292 cells in complete media
[28] = drug in cholesterol-free media with simvastatin 0.04 μM
[29] = complete vs cholesterol-free media, greater than 0 enhanced anti-cancer activity, about 0 neutral, below 0 antagonists

CC[C@H]1[C@@H](O)[C@@H]2[C@H](CC[C@]3(C)[C@@H]([C@H](C)CCC(=O)O)CC[C@@H]23)[C@@]2(C)CC[C@@H](O)C[C@@H]12 [Obeticholic acid]
Cholesterol-free [1, 3]: 0.5907
Complete [1, 4]: 0.9124
Difference [1, 5]: 0.32
Cholesterol-free media + simvastatin (0.04 μM) [2, 6]: 1.258
Complete Media [2, 7]: 1.13
Difference [2, 8]: −0.13

COc1cc2c(cc1OC)[C@H]1C[C@@H](OC(=O)[C@@H](N)C(C)C)[C@H](CC(C)C)CN1CC2 [Valbenazine]
Difference [1, 9]: −0.16
Cholesterol-free [1, 10]: 1.298
Complete [1, 11]: 1.135
Cholesterol-free media + simvastatin (0.04 μM) [2, 12]: 1.305
Complete Media [2, 13]: 1.011
Difference [2, 8]: −0.29

Nc1ccn([C@H]2CC[C@@H](CO)O2)c(=O)n1 [Zalcitabine]
Difference [1, 14]: −0.22
Cholesterol-free [1, 15]: 1.156
Complete ([1]; NCI-H292 cells, complete media): 0.9405
Cholesterol-free media + simvastatin (0.04 μM) [2, 16]: 1.825
Complete Media [2, 17]: 1.89
Difference [2, 18]: 0.06

C[C@H]1C[C@H]2[C@@H]3CCC4=CC(=O)C=C[C@]4(C)[C@@]3(F)[C@@H](O)C[C@]2(C)[C@@]1(O)C(=O)CO [Betamethasone]
Difference [1, 14]: −0.03
Cholesterol-free [1, 3]: 0.6463
Complete [1, 4]: 0.6113
Cholesterol-free media + simvastatin (0.04 μM) [2, 6]: 1.093
Complete Media [2, 7]: 0.9456
Difference [2, 8]: −0.15

COc1ccc([C@@H]2CC(=O)c3c(O)cc(O[C@@H]4O[C@H](CO[C@@H]5O[C@@H](C)[C@H](O)[C@@H](O)[C@H]5O)[C@@H](O)[C@H](O)[C@H]4O)cc3O2)cc1O [Hesperidin]
Difference [1, 19]: −0.08
Cholesterol-free [1, 10]: 1.106
Complete [1, 11]: 1.03
Cholesterol-free media + simvastatin (0.04 μM) [2, 6]: 1.822
Complete Media [2, 7]: 1.671
Difference [2, 20]: −0.15

Cc1nccn1CC1CCc2c(c3ccccc3n2C)C1=O (stereo not shown) [Ondansetron]
Difference [1, 14]: −0.05
Cholesterol-free [1, 3]: 1.168
Complete [1, 4]: 1.123
Cholesterol-free media + simvastatin (0.04 μM) [2, 21]: 1.019
Complete Media [2, 22]: 0.948
Difference [2, 23]: −0.07

Cn1c(=O)c2[nH]cnc2n(C)c1=O [Aminophylline]
Difference [1, 9]: −0.14
Cholesterol-free [1, 10]: 0.9006
Complete [1, 11]: 0.7581
Cholesterol-free media + simvastatin (0.04 μM) [2, 21]: 0.918
Complete Media [2, 22]: 0.8588
Difference [2, 23]: −0.06

Dabrafenib (Mesylate)
Cholesterol-free [1, 3]: 0.4044
Complete [1, 4]: 0.6337
Difference ([1]; complete vs cholesterol-free media, […]): 0.23
Cholesterol-free media + simvastatin (0.04 μM) [2, 6]: 0.4336
Complete Media [2, 7]: 0.6478
Difference [2, 24]: 0.21

NS(=O)(=O)c1cc(Cl)c(Cl)c(S(N)(=O)=O)c1 [Dichlorphenamide]
Difference [1, 9]: −0.08
Cholesterol-free [1, 10]: 1.046
Complete [1, 11]: 0.9714
Cholesterol-free media + simvastatin (0.04 μM) [2, 21]: 1.117
Complete Media [2, 22]: 1.073
Difference [2, 23]: −0.04

O=S(=O)(O)c1cc(O)ccc1O [Ethamsylate]
Difference [1, 25]: −0.53
Cholesterol-free [1, 26]: 1.652
Complete [1, 27]: 1.118
Cholesterol-free media + simvastatin (0.04 μM) [2, 6]: 1.397
Complete Media [2, 7]: 1.245
Difference [2, 8]: −0.15

CS(=O)(=O)OCCCCOS(C)(=O)=O [Busulfan]
Difference [1, 14]: 0.07
Cholesterol-free [1, 3]: 1.648
Complete [1, 4]: 1.719
Cholesterol-free media + simvastatin (0.04 μM) [2, 12]: 1.936
Complete Media [2, 13]: 1.265
Difference [2, 8]: −0.67

Metaproterenol (hemisulfate)
Cholesterol-free [1, 3]: 0.8425
Difference [1, 5]: 0.09
Cholesterol-free media + simvastatin (0.04 μM) [2, 28]: 1.002
Complete Media ([2]; drug in complete media): 0.7891
Difference [2, 8]: −0.21

Nc1ccc(S(=O)(=O)Nc2ncccn2)cc1 [Sulfadiazine]
Cholesterol-free [1, 15]: 1.21
Complete ([1]; NCI-H292 cells, complete media): 0.7631
Difference [1, 29]: −0.45
Cholesterol-free media + simvastatin (0.04 μM) [2, 16]: 1.499
Complete Media [2, 17]: 1.555
Difference [2, 18]: 0.06

COc1ccccc1N1CCN(CC(O)COc2cccc3ccccc23)CC1 (stereo not shown) [Naftopidil]
Difference [1, 25]: −0.98
Cholesterol-free [1, 26]: 1.94
Complete [1, 27]: 0.9592
Cholesterol-free media + simvastatin (0.04 μM) [2, 16]: 0.6892
Complete Media [2, 17]: 0.763
Difference [2, 18]: 0.07

CCCCCCCCCCCCCCCC[n+]1ccccc1.[Cl-] [Cetylpyridinium (chloride)]
Difference [1, 19]: −0.03
Cholesterol-free [1, 3]: 0.09243
Complete [1, 4]: 0.05797
Cholesterol-free media + simvastatin (0.04 μM) ([2]; cholesterol-free media with simvastatin 0.04 μM, […]): 0.218
Complete Media ([2]; complete media, […]): 0.2381
Difference [2, 24]: 0.02

CCN1CCN(C(=O)N[C@@H](C(=O)N[C@@H]2C(=O)N3C(C(=O)O)=C(CSc4nnnn4C)CS[C@H]23)c2ccc(O)cc2)C(=O)C1=O [Cefoperazone (sodium salt)]
Cholesterol-free [1, 3]: 1.002
Difference [1, 5]: 0.17
Cholesterol-free media + simvastatin (0.04 μM) [2, 28]: 1.213
Complete Media ([2]; drug in complete media): 0.9749
Difference [2, 8]: −0.24

O=c1[nH]cc(F)c(=O)[nH]1 [5-Fluorouracil]
Difference [1, 9]: −0.13
Cholesterol-free [1, 10]: 0.4728
Complete [1, 11]: 0.3401
Cholesterol-free media + simvastatin (0.04 μM) [2, 12]: 0.7934
Complete Media [2, 13]: 0.5204
Difference [2, 8]: −0.27

Ketanserin (tartrate)
Difference [1, 14]: 0.03
Cholesterol-free [1, 3]: 0.9853
Complete [1, 4]: 1.019
Cholesterol-free media + simvastatin (0.04 μM) [2, 28]: 1.267
Difference [2, 8]: −0.22

Dihydroergocristine (mesylate)
Difference [1, 19]: −0.17
Cholesterol-free media + simvastatin (0.04 μM) [2, 6]: 1.12
Complete Media [2, 7]: 1.011
Difference [2, 20]: −0.11

CCCN(CCC)CCc1cccc2c1CC(=O)N2 [Ropinirole (hydrochloride)]
Cholesterol-free [1, 15]: 1.101
Complete ([1]; NCI-H292 cells, complete media): 0.7874
Difference [1, 29]: −0.31
Cholesterol-free media + simvastatin (0.04 μM) [2, 6]: 0.879
Complete Media [2, 7]: 1.185
Difference [2, 18]: 0.31

C[C@@H]1CN(c2c(F)c(N)c3c(=O)c(C(=O)O)cn(C4CC4)c3c2F)C[C@H](C)N1 [Sparfloxacin]
Difference [1, 25]: −0.52
Cholesterol-free [1, 26]: 1.45
Complete [1, 27]: 0.9275
Cholesterol-free media + simvastatin (0.04 μM) [2, 6]: 0.949
Complete Media [2, 7]: 1.118
Difference [2, 18]: 0.17

CCN1CCCC1CNC(=O)c1cc(S(=O)(=O)CC)c(N)cc1OC (stereo not shown) [Amisulpride]
Cholesterol-free [1, 3]: 1.175
Complete [1, 4]: 1.349
Difference [1, 5]: 0.17
Cholesterol-free media + simvastatin (0.04 μM) [2, 16]: 0.8703
Complete Media [2, 17]: 0.9333
Difference [2, 18]: 0.06

N=C(N)/N=C(\N)N1CCOCC1 [Moroxydine (hydrochloride)]
Cholesterol-free [1, 15]: 1.172
Complete ([1]; NCI-H292 cells, complete media): 0.8572
Difference [1, 29]: −0.32
Cholesterol-free media + simvastatin (0.04 μM) [2, 28]: 1.02
Complete Media ([2]; drug in complete media): 0.8563
Difference [2, 8]: −0.16

Cc1ccccc1N1C(=O)c2cc(S(N)(=O)=O)c(Cl)cc2NC1C (stereo not shown) [Metolazone]
Difference [1, 25]: −0.62
Cholesterol-free [1, 26]: 1.469
Complete [1, 27]: 0.8441
Cholesterol-free media + simvastatin (0.04 μM) [2, 6]: 1.129
Complete Media [2, 7]: 0.9754
Difference [2, 8]: −0.15

NCCS(=O)(=O)O [Taurine]
Cholesterol-free [1, 3]: 1.192
Complete [1, 4]: 1.309
Difference [1, 5]: 0.12
Cholesterol-free media + simvastatin (0.04 μM) [2, 12]: 1.971
Complete Media [2, 13]: 1.363
Difference [2, 8]: −0.61
